Measurements as given in US12281122B1, “PI3K inhibitors” (Cogent Biosciences, Inc., priority 2023, dated 2025).

Legend:
[1] = test system: SKBR3 (PI3Kα-Wild Type) cell line; experiment: HTRF phospho-AKT(S473) cell assay in SKBR3 cells; type: cell-based, human
Procedure, shortened: (§1)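 Cells plated overnight (T47D in RPMI/10% FBS/0.2 units/mL insulin; SKBR3 in McCoy's 5A/10% FBS), then given 12-point 1:3 compound series (top 5 μM T47D, 10 μM SKBR3; ≤0.5% DMSO) for 2 h at 37° C. SKBR3 stimulated with 70 ng/ml PDGF-BB for final 15 min. Lysate pAKT(S473) by HTRF; IC50 calculated.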

[2] = test system: T47D (PI3Kα-H1047R) cell line; experiment: HTRF phospho-AKT(S473) cell assay in T47D cells; type: cell-based, human
Procedure, shortened: as §1

[3] = Homo sapiens, SK-BR-3; HTRF phospho-AKT(S473), SKBR3 (PI3Kα-Wild Type) cells, 2 hours compound incubation, PDGF-BB stimulated
[4] = Homo sapiens; HTRF phospho-AKT(S473), T47D (PI3Kα-H1047R) cells, 2 hours compound incubation
[5] = Homo sapiens, SK-BR-3; SKBR3 (PI3Kα-Wild Type) cells, HTRF phospho-AKT(S473), 2 hours compound incubation, PDGF-BB stimulated
[6] = Homo sapiens; T47D (PI3Kα-H1047R) cells, HTRF phospho-AKT(S473), 2 hours compound incubation

SMILES	IC50 [1, 3]	IC50 [2, 4]	IC50 [1, 5]	IC50 [2, 6]
Cc1cnc(N2C[C@@H]3[C@H](C2)[C@H]3c2nc3c([C@@H](C)Nc4ccc(Cl)nc4C(=O)NS(C)(=O)=O)cc(C)cc3c(=O)n2C)nc1 [Compound 810, 6-chloro-3-(((R)-1-(3,6-dimethyl-2-((1R,5S,6r)-3-(5-methylpyrimidin-2-yl)-3-azabicyclo[3.1.0]hexan-6-yl)-4-oxo-3,4-dihydroquinazolin-8-yl)ethyl)amino)-N-(methylsulfonyl) picolinamide]	≥ 5 µM	0.25 to 0.5 µM	–	–
Cc1cc([C@@H](C)Nc2ccc(Cl)nc2C(=O)NS(C)(=O)=O)c2nc(N3CCC(n4ccccc4=O)CC3)n(C)c(=O)c2c1 [Compound 677, (R)-6-chloro-3-((1-(3,6-dimethyl-4-oxo-2-(4-(2-oxopyridin-1(2H)-yl)piperidin-1-yl)-3,4-dihydroquinazolin-8-yl)ethyl)amino)-N-(methylsulfonyl) picolinamide]	≥ 5 µM	0.25 to 0.5 µM	–	–
Cc1cc([C@@H](C)Nc2ccc(Cl)nc2C(=O)NS(C)(=O)=O)c2nc(N3CCN(c4cc(C)n(C)n4)CC3)n(C)c(=O)c2c1 [Compound 634, (R)-6-chloro-3-((1-(2-(4-(1,5-dimethyl-1H-pyrazol-3-yl)piperazin-1-yl)-3,6-dimethyl-4-oxo-3,4-dihydroquinazolin-8-yl)ethyl)amino)-N-(methylsulfonyl) picolinamide]	≥ 5 µM	< 0.25 µM	–	–
Cc1cc([C@@H](C)Nc2ccc(Cl)nc2C(=O)NS(C)(=O)=O)c2nc(N3CCN(c4ccc(C#N)cn4)[C@@H](C)C3)n(C)c(=O)c2c1 [Compound 196, 6-chloro-3-(((R)-1-(2-((S)-4-(5-cyanopyridin-2-yl)-3-methylpiperazin-1-yl)-3,6-dimethyl-4-oxo-3,4-dihydroquinazolin-8-yl)ethyl)amino)-N-(methylsulfonyl) picolinamide]	–	–	1 to 5 µM	< 0.25 µM
Cc1cc([C@@H](C)Nc2ccc(Cl)nc2C(=O)NS(C)(=O)=O)c2nc(N3CC[C@H](Oc4cncnc4)C3)n(C)c(=O)c2c1 [Compound 354, 6-chloro-3-(((R)-1-(3,6-dimethyl-4-oxo-2-((S)-3-(pyrimidin-5-yloxy)pyrrolidin-1-yl)-3,4-dihydroquinazolin-8-yl)ethyl)amino)-N-(methylsulfonyl) picolinamide]	–	–	1 to 5 µM	< 0.25 µM
Cc1cc([C@@H](C)Nc2ccc(Cl)nc2C(=O)NS(C)(=O)=O)c2nc(N3Cc4ccc(C)nc4C3)n(C)c(=O)c2c1 [Compound 514, (R)-6-chloro-3-((1-(3,6-dimethyl-2-(2-methyl-5,7-dihydro-6H-pyrrolo[3,4-b]pyridin-6-yl)-4-oxo-3,4-dihydroquinazolin-8-yl)ethyl)amino)-N-(methylsulfonyl) picolinamide]	1 to 5 µM	< 0.25 µM	–	–
Cc1cc([C@@H](C)Nc2ccc(Cl)nc2C(=O)NS(C)(=O)=O)c2nc(N3Cc4cn(CC(F)(F)F)nc4C3)n(C3CC3)c(=O)c2c1 [Compound 735, (R)-6-chloro-3-((1-(3-cyclopropyl-6-methyl-4-oxo-2-(2-(2,2,2-trifluoroethyl)-2,6-dihydropyrrolo[3,4-c]pyrazol-5(4H)-yl)-3,4-dihydroquinazolin-8-yl)ethyl)amino)-N-(methylsulfonyl) picolinamide]	1 to 5 µM	0.25 to 0.5 µM	–	–
Cc1cc([C@@H](C)Nc2ccc(Cl)nc2C(=O)NS(C)(=O)=O)c2nc(N3CCc4nn(CC5COC5)cc4C3)n(C)c(=O)c2c1 [Compound 289, (R)-6-chloro-3-((1-(3,6-dimethyl-2-(2-(oxetan-3-ylmethyl)-2,4,6,7-tetrahydro-5H-pyrazolo[4,3-c]pyridin-5-yl)-4-oxo-3,4-dihydroquinazolin-8-yl)ethyl)amino)-N-(methylsulfonyl) picolinamide]	–	–	≥ 5 µM	< 0.25 µM
COc1cc([C@H]2[C@@H]3CN(c4nc5c([C@@H](C)Nc6ccc(Cl)nc6C(=O)NS(C)(=O)=O)cc(C)cc5c(=O)n4C)C[C@@H]32)nn1C [Compound 542, 6-chloro-3-(((R)-1-(2-((1R,5S,6R)-6-(5-methoxy-1-methyl-1H-pyrazol-3-yl)-3-azabicyclo[3.1.0]hexan-3-yl)-3,6-dimethyl-4-oxo-3,4-dihydroquinazolin-8-yl)ethyl)amino)-N-(methylsulfonyl) picolinamide]	≥ 5 µM	0.25 to 0.5 µM	–	–
Cc1cnc(C2CCN(c3nc4c([C@@H](C)Nc5ccc(Cl)nc5C(=O)NS(C)(=O)=O)cc(C)cc4c(=O)n3C)CC2)nc1 [Compound 404, (R)-6-chloro-3-((1-(3,6-dimethyl-2-(4-(5-methylpyrimidin-2-yl)piperidin-1-yl)-4-oxo-3,4-dihydroquinazolin-8-yl)ethyl)amino)-N-(methylsulfonyl) picolinamide]	–	–	1 to 5 µM	< 0.25 µM
Cc1cc([C@@H](C)Nc2ccc(Cl)nc2C(=O)NS(C)(=O)=O)c2nc(N3CCN(c4ccn(C)n4)[C@H](C)C3)n(C)c(=O)c2c1 [Compound 256, 6-chloro-3-(((R)-1-(3,6-dimethyl-2-((R)-3-methyl-4-(1-methyl-1H-pyrazol-3-yl)piperazin-1-yl)-4-oxo-3,4-dihydroquinazolin-8-yl)ethyl)amino)-N-(methylsulfonyl) picolinamide]	–	–	1 to 5 µM	< 0.25 µM
Cc1cc([C@@H](C)Nc2ccc(Cl)nc2C(=O)NS(C)(=O)=O)c2nc(N3CCC(n4ncnc4C)CC3)n(C)c(=O)c2c1 [Compound 549, (R)-6-chloro-3-((1-(3,6-dimethyl-2-(4-(5-methyl-1H-1,2,4-triazol-1-yl)piperidin-1-yl)-4-oxo-3,4-dihydroquinazolin-8-yl)ethyl)amino)-N-(methylsulfonyl) picolinamide]	1 to 5 µM	< 0.25 µM	–	–

Second part, the compound after the results:

IC50 [1, 3]	IC50 [2, 4]	IC50 [1, 5]	IC50 [2, 6]	SMILES
–	–	≥ 5 µM	0.25 to 0.5 µM	Cc1cc([C@@H](C)Nc2ccc(Cl)nc2C(=O)NS(C)(=O)=O)c2nc(N3C[C@@H]4CC(c5ccn(C)n5)C[C@H]4C3)n(C)c(=O)c2c1 (single isomer, unassigned) [Compound 426, 6-chloro-3-(((R)-1-(3,6-dimethyl-2-((3aR*,6aR*)-5-(1-methyl-1H-pyrazol-3-yl)hexahydrocyclopenta [c]pyrrol-2(1H)-yl)-4-oxo-3,4-dihydroquinazolin-8-yl)ethyl)amino)-N-(methylsulfonyl) picolinamide]
≥ 5 µM	0.25 to 0.5 µM	–	–	Cc1cc([C@@H](C)Nc2ccc(Cl)nc2C(=O)NS(C)(=O)=O)c2nc(N3CCC(n4ncc5ccccc54)CC3)n(C)c(=O)c2c1 [Compound 685, (R)-3-((1-(2-(4-(1H-indazol-1-yl)piperidin-1-yl)-3,6-dimethyl-4-oxo-3,4-dihydroquinazolin-8-yl)ethyl)amino)-6-chloro-N-(methylsulfonyl) picolinamide]
1 to 5 µM	< 0.25 µM	–	–	Cc1cc([C@@H](C)Nc2ccc(Cl)nc2C(=O)NS(C)(=O)=O)c2nc(N3C[C@@H]4[C@H](C3)[C@H]4c3cnc(C)nc3C)n(C)c(=O)c2c1 [Compound 578, 6-chloro-3-(((R)-1-(2-((1R,5S,6S)-6-(2,4-dimethylpyrimidin-5-yl)-3-azabicyclo[3.1.0]hexan-3-yl)-3,6-dimethyl-4-oxo-3,4-dihydroquinazolin-8-yl)ethyl)amino)-N-(methylsulfonyl) picolinamide]
1 to 5 µM	< 0.25 µM	–	–	CCn1c(-c2ccc3nn(C)cc3c2)nc2c([C@@H](C)Nc3ccc(Cl)nc3C(=O)NS(C)(=O)=O)cc(C)cc2c1=O [Compound 812, (R)-6-chloro-3-((1-(3-ethyl-6-methyl-2-(2-methyl-2H-indazol-5-yl)-4-oxo-3,4-dihydroquinazolin-8-yl)ethyl)amino)-N-(methylsulfonyl) picolinamide]
–	–	1 to 5 µM	< 0.25 µM	Cc1cc([C@@H](C)Nc2ccc(Cl)nc2C(=O)NS(C)(=O)=O)c2nc(N3CC[C@@H](Oc4ccnn4C)C3)n(C)c(=O)c2c1 [Compound 352, 6-chloro-3-(((R)-1-(3,6-dimethyl-2-((R)-3-((1-methyl-1H-pyrazol-5-yl)oxy)pyrrolidin-1-yl)-4-oxo-3,4-dihydroquinazolin-8-yl)ethyl)amino)-N-(methylsulfonyl) picolinamide]
≥ 5 µM	0.5 to 1 µM	–	–	Cc1cc([C@@H](C)Nc2ccc(Cl)nc2C(=O)NS(C)(=O)=O)c2nc(N3CCC(c4ncc(C(F)(F)F)cn4)CC3)n(C)c(=O)c2c1 [Compound 630, (R)-6-chloro-3-((1-(3,6-dimethyl-4-oxo-2-(4-(5-(trifluoromethyl)pyrimidin-2-yl)piperidin-1-yl)-3,4-dihydroquinazolin-8-yl)ethyl)amino)-N-(methylsulfonyl) picolinamide]
≥ 5 µM	< 0.25 µM	–	–	Cc1ccn([C@H]2[C@@H]3CN(c4nc5c([C@@H](C)Nc6ccc(Cl)nc6C(=O)NS(C)(=O)=O)cc(C)cc5c(=O)n4C)C[C@@H]32)c(=O)c1 [Compound 754, 6-chloro-3-(((R)-1-(3,6-dimethyl-2-((1R,5S,6S)-6-(4-methyl-2-oxopyridin-1(2H)-yl)-3-azabicyclo[3.1.0]hexan-3-yl)-4-oxo-3,4-dihydroquinazolin-8-yl)ethyl)amino)-N-(methylsulfonyl) picolinamide]
≥ 5 µM	< 0.25 µM	–	–	Cc1cc([C@@H](C)Nc2ccc(Cl)nc2C(=O)NS(C)(=O)=O)c2nc(N3CCC[C@H](c4cnc(C)nc4)C3)n(C)c(=O)c2c1 (relative stereo) [Compound 646, 6-chloro-3-(((R)-1-(3,6-dimethyl-2-((R*)-3-(2-methylpyrimidin-5-yl)piperidin-1-yl)-4-oxo-3,4-dihydroquinazolin-8-yl)ethyl)amino)-N-(methylsulfonyl) picolinamide]
